{"source": "patent US20180049425A1", "about": "“Bait Composition” (priority 2016, published 2018)", "key": {"[1]": {"system": "feral hogs", "test": "studies using the instant feral hog control system with low dose warfarin bait", "format": "in vivo, Sus scrofa", "from_the_text": "As to particular studies, death of the feral hogs (2) occurred within not greater than about five days following exposure to the bait (3)."}, "[2]": {"system": "feral pigs", "conditions": "bait containing 0.13% warfarin by weight of the bait; McIlroy et al.; cited from earlier work"}, "[3]": {"system": "feral pigs", "conditions": "bait containing 0.09% warfarin by weight of the bait; Saunders et al.; cited from earlier work"}, "[4]": {"conditions": "bait with about 0.005% warfarin by weight of the bait"}, "[5]": {"conditions": "bait with about 0.01% warfarin by weight of the bait"}}, "data": [{"smiles": "CC(=O)CC(c1ccccc1)c1c(O)c2ccccc2oc1=O", "note": "(stereo not drawn) [warfarin]", "values": [{"measurement": "death of the feral hogs following exposure to the bait", "setting": "[1]; [4]", "value": "ten"}, {"measurement": "mortality rate", "setting": "[1]; [4]", "value": 100, "unit": "%"}, {"measurement": "death of the feral hogs following exposure to the bait, particular studies", "setting": "[1]; [4]", "value": "five"}, {"measurement": "death of the feral hogs following exposure to the bait", "setting": "[1]; [5]", "value": "ten"}, {"measurement": "mortality rate", "setting": "[1]; [5]", "value": 100, "unit": "%"}, {"measurement": "death of the feral hogs following exposure to the bait, particular studies", "setting": "[1]; [5]", "value": "five"}, {"measurement": "feral pigs dying", "setting": "[2]", "value": "30 of 32"}, {"measurement": "time of dying after bait distribution (mean±s.e.)", "setting": "[2]", "value": "9.7 ± 0.4", "unit": "days"}, {"measurement": "first death recorded after bait distribution", "setting": "[3]", "value": "six"}]}]}
